From patent US20240368096A1 (Enanta Pharmaceuticals, Inc., priority 2022, published 2024)
Like-named read-outs stand apart in the source and are kept apart here.

Assays:
HBV = HBV infection in HepG2-NTCP cells (HBeAg AlphaLISA in supernatants); type: cell-based; settings: Hepatitis B virus, 192 h
Method in brief: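 Readout was day-8 supernatant HBeAg by AlphaLISA, with EC50 set against DMSO controls and binned A<0.1 μM, B 0.1-1 μM, C>1 μM. Compounds were added 2 h before HBV (2000 GE/cell, 4% PEG, 0.5% DMSO) to HepG2-NTCP A3 cells; from day 1 medium held 2.5% DMSO.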

NTCP = biological target: T1, NTCP (Homo sapiens, UniProt Q14973); experiment: HepG2-NTCP preS1 binding competition assay (FITC-labeled myristoylated preS1 peptide); settings: HepG2-NTCP cells; competition with FITC-labeled preS1 peptide
T1 construct: expressed in transfected cells; host or cells: HepG2-NTCP (clone A3, kept under puromycin)
T1 sequence (Q14973 1-349): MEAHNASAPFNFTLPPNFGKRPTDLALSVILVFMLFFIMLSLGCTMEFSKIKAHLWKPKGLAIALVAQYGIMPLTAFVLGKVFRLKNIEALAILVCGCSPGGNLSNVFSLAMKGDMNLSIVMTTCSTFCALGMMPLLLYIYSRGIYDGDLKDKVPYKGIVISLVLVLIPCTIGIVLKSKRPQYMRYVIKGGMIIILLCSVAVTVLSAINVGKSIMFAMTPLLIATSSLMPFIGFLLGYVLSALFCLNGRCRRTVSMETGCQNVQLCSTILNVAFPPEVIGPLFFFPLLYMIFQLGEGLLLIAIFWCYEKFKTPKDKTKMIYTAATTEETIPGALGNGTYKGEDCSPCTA
Method: HepG2-NTCP preS1 Binding Competition Assay
Myristoylated preS1 peptide (2-48 aa) conjugated to a C-terminal FITC tag was synthesized to evaluate preS1 binding to NTCP-expressing cells. HepG2-NTCP cells seeded in 384-wells were pre-treated with compounds for 2 hours prior to the addition of FITC-labeled preS1 peptide. After co-incubation for 30 minutes, unbound FITC-preS1 peptide was washed twice with PBS, and the fluorescence of preS1-FITC bound to cell surface was detected by Envision plate reader. EC50 ranges are as follows: A<0.1 μM; B 0.1-1 μM; C>1 μM.

[1] = HBV infection of HepG2-NTCP cells, HBeAg in supernatants at day 8 post infection, read-out: Cellular EC50

Row | EC50 (HBV; [1]) [µM] | EC50 (NTCP) [nM] | Compound | EC50 (HBV; read-out: Cellular EC50 (μM)) [µM]
1 | 0.1 to 1 | 100 to 1000 | CN1[C@H](C2CCCCC2)CN(c2ccccc2)c2cc(Cl)c(-c3ccc(N)c(C(=O)O)c3)cc2S1(=O)=O [Example 157, (R)-2-amino-5-(7-chloro-3-cyclohexyl-2-methyl-1,1-dioxido-5-phenyl-2,3,4,5-tetrahydrobenzo[f][1,2,5]thiadiazepin-8-yl)benzoic acid] | –
2 | < 0.1 | < 100 | CCCCOC(=O)Nc1cc(-c2cc3c(cc2Cl)N(c2ccccc2)C[C@@H](C2CCCCC2)N(C)S3(=O)=O)sc1C(=O)O [Example 246] | –
3 | < 0.1 | 100 to 1000 | CN1[C@H](C2CCCCC2)CN(c2ccccc2)c2cc(Cl)c(N3C[C@H](C(=O)O)[C@@H](c4ccccc4)C3)cc2S1(=O)=O [Example 612] | –
4 | – | 100 to 1000 | CN1[C@H](C2CCCCC2)CN(c2ccccc2)c2cc(O[C@H]3C[C@H](O)C3)c(-c3cc(F)c(C(=O)O)s3)cc2S1(=O)=O [Example 503] | –
5 | – | 100 to 1000 | CC(C)C(=O)NS(=O)(=O)c1ccc(-c2cc3c(cc2Cl)N(c2ccccc2)C[C@@H](C2CCCCC2)N(C)S3(=O)=O)s1 [Example 227] | –
6 | – | 100 to 1000 | CN1[C@H](C2CCCCC2)CN(c2ccccc2)c2cc(OC3COC3)c(-c3ccc(F)c(C(=O)O)c3)cc2S1(=O)=O [Example 370] | –
7 | – | > 1000 | CN1[C@H](C2CCCCC2)CN(c2ccccc2)c2cc(Cl)c(-c3ccc(S(N)(=O)=O)s3)cc2S1(=O)=O [Example 201] | –
8 | – | < 100 | COC1CC(OC(=O)Nc2cc(-c3cc4c(cc3Cl)N(c3ccccc3)C[C@@H](C3CCCCC3)N(C)S4(=O)=O)sc2C(=O)O)C1 (stereo partly drawn) [Example 264] | –
9 | – | 100 to 1000 | CN1[C@H](C2CCCCC2)CN(c2ccccc2)c2cc(Cl)c(-c3cc(Cl)c(N)c(C(=O)O)c3)cc2S1(=O)=O [Example 192] | –
10 | < 0.1 | < 100 | CN1[C@H](C2CCCCC2)CN(c2ccccc2)c2cc(Cl)c(N3C[C@H](C(=O)O)[C@@H](C(F)(F)F)C3)cc2S1(=O)=O [Example 614] | –
11 | 0.1 to 1 | 100 to 1000 | CC(=O)NS(=O)(=O)c1ccc(-c2cc3c(cc2Cl)N(c2ccccc2)C[C@@H](C2CCCCC2)N(C)S3(=O)=O)s1 [Example 225] | –
12 | 0.1 to 1 | 100 to 1000 | CN1[C@H](C2CCCCC2)CN(c2ccccc2)c2cc(Cl)c([C@H]3C[C@H](C(=O)O)C3)cc2S1(=O)=O [Example 608, (1R,3r)-3-((R)-7-chloro-3-cyclohexyl-2-methyl-1,1-dioxido-5-phenyl-2,3,4,5-tetrahydrobenzo[f][1,2,5]thiadiazepin-8-yl)cyclobutane-1-carboxylic acid] | –
13 | 0.1 to 1 | 100 to 1000 | CN1[C@H](C2CCCCC2)CN(C2CCOCC2)c2cc(Cl)c(-c3ccc(F)c(C(=O)O)c3)cc2S1(=O)=O [Example 321] | –
14 | < 0.1 | < 100 | CCCCCN1C[C@@H](C2CCCCC2)N(C)S(=O)(=O)c2cc(-c3ccc(F)c(C(=O)O)c3)c(Cl)cc21 [Example 323] | –
15 | < 0.1 | < 100 | Cc1cc(-c2cc3c(cc2OCC(F)(F)F)N(c2ccccc2)C[C@@H](C2CCCCC2)N(C)S3(=O)=O)sc1C(=O)O [Example 512, (R)-5-(3-cyclohexyl-2-methyl-1,1-dioxido-5-phenyl-7-(2,2,2-trifluoroethoxy)-2,3,4,5-tetrahydrobenzo[f][1,2,5]thiadiazepin-8-yl)-3-methylthiophene-2-carboxylic acid] | –
16 | 0.1 to 1 | < 100 | CCCCC1CN(c2ccccc2)c2cc(CN3CCCC3)c(-c3ccc(F)c(C(=O)O)c3)cc2S(=O)(=O)N1C (stereo not drawn) [Example 563, 5-(3-butyl-2-methyl-1,1-dioxido-5-phenyl-7-(pyrrolidin-1-ylmethyl)-2,3,4,5-tetrahydrobenzo[f][1,2,5]thiadiazepin-8-yl)-2-fluorobenzoic acid] | –
17 | – | < 100 | COCCCOC(=O)Nc1cc(-c2cc3c(cc2Cl)N(c2ccccc2)C[C@@H](C2CCCCC2)N(C)S3(=O)=O)sc1C(=O)O [Example 263] | –
18 | – | > 1000 | CN(C)C(=O)c1ccc(N2C[C@@H](C3CCCCC3)N(C)S(=O)(=O)c3cc(-c4ccc(F)c(C(=O)O)c4)c(Cl)cc32)cc1 [Example 315] | –
19 | – | 100 to 1000 | CN1[C@H](C2CCCCC2)CN(c2ccccc2)c2cc(Cl)c(N3CC[C@H](C(=O)O)C3)cc2S1(=O)=O [Example 611] | –
20 | – | 100 to 1000 | CN1[C@H](C2CCCCC2)CN(c2ccccc2)c2cc(Cl)c(N3CC[C@@H](C(=O)O)C3)cc2S1(=O)=O [Example 610] | –

Row | EC50 (HBV; [1]) [µM] | EC50 (NTCP) [nM] | Compound | EC50 (HBV; read-out: Cellular EC50 (μM)) [µM]
21 | – | < 100 | CN1[C@H](C2CCCCC2)CN(c2ccccc2)c2cc(Cl)c(-c3cc(NC(=O)OCCOC(C)(C)C)c(C(=O)O)s3)cc2S1(=O)=O [Example 262] | –
22 | – | 100 to 1000 | CN1[C@H](C2CCCCC2)CN(c2ccccc2)c2cc(Cl)c(-c3ccc(S(=O)(=O)NC(=O)c4ccccc4)s3)cc2S1(=O)=O [Example 226] | –
23 | > 1 | – | CN1[C@H](COCc2ccccc2)CN(c2ccccc2)c2cc(Cl)c(-c3ccc(F)c(C(=O)O)c3)cc2S1(=O)=O [Example 102] | –
24 | 0.1 to 1 | – | CC(C)C[C@@H]1CN(c2ccccc2)c2cc(Oc3ccc(C(F)(F)F)cc3)c(-c3ccc(F)c(C(=O)O)c3)cc2S(=O)(=O)N1C [Example 426] | –
25 | < 0.1 | – | CN1[C@H](C2CCCCC2)CNc2cc(-c3ccccc3F)c(-c3ccc(F)c(C(=O)O)c3)cc2S1(=O)=O [Example 569, (R)-5-(3-cyclohexyl-7-(2-fluorophenyl)-2-methyl-1,1-dioxido-2,3,4,5-tetrahydrobenzo[f][1,2,5]thiadiazepin-8-yl)-2-fluorobenzoic acid] | –
26 | < 0.1 | – | CN1[C@H](C2CCCCC2)CN(c2ccccc2)c2cc(Cl)c(-c3ccc([N+](=O)[O-])c(C(=O)O)c3)cc2S1(=O)=O [Example 189, (R)-5-(7-chloro-3-cyclohexyl-2-methyl-1,1-dioxido-5-phenyl-2,3,4,5-tetrahydrobenzo[f][1,2,5]thiadiazepin-8-yl)-2-nitrobenzoic acid] | –
27 | 0.1 to 1 | – | CN1[C@H](C2CCCCC2)CN(c2ccccc2)c2cc(N3CCN(S(C)(=O)=O)CC3)c(-c3ccc(F)c(C(=O)O)c3)cc2S1(=O)=O [Example 536] | –
28 | 0.1 to 1 | – | CCCC[C@@H]1CN(c2ccccc2)c2cc(C)c(-c3ccc(Cl)c(C(=O)O)c3)cc2S(=O)(=O)N1C [Example 567] | –
29 | 0.1 to 1 | – | CN1[C@H](C2CCCCC2)CN(c2ccccc2)c2cc(Cl)c(-c3ccc(F)c(C(=O)O)n3)cc2S1(=O)=O [Example 141, (R)-6-(7-chloro-3-cyclohexyl-2-methyl-1,1-dioxido-5-phenyl-2,3,4,5-tetrahydrobenzo[f][1,2,5]thiadiazepin-8-yl)-3-fluoropicolinic acid] | –
30 | < 0.1 | – | CN1[C@H](C2CCCCC2)CN(c2ccccc2)c2cc(O[C@H]3C[C@@H](C#N)C3)c(-c3ccc(F)c(C(=O)O)c3)cc2S1(=O)=O [Example 382] | –
31 | < 0.1 | – | CC(C)COC(=O)Nc1c(F)cc(-c2cc3c(cc2Cl)N(c2ccccc2)C[C@@H](C2CCCCC2)N(C)S3(=O)=O)cc1C(=O)O [Example 277] | –
32 | < 0.1 | – | CN1[C@H](C2CCCCC2)CN(c2ccccc2)c2cc(Cl)c(-c3cc(C(=O)O)n(C)n3)cc2S1(=O)=O [Example 134] | –
33 | > 1 | – | COCCC(=O)N1CCC(c2cc3c(cc2-c2ccc(F)c(C(=O)O)c2)S(=O)(=O)N(C)[C@H](C2CCCCC2)CN3c2ccccc2)CC1 [Example 600] | –
34 | < 0.1 | – | CN1[C@H](C2CCCCC2)CN(c2ccccc2)c2cc(C3CC(F)(F)C3)c(-c3ccc(F)c(C(=O)O)c3)cc2S1(=O)=O [Example 589] | –
35 | > 1 | – | CCCC[C@H]1CN(c2ccccc2)c2cc(N3CCCCC3)c(-c3cccc(C(=O)O)c3)cc2S(=O)(=O)N1C [Example 540] | –
36 | > 1 | – | CC(C)C[C@@H]1CN(c2ccccc2)c2cc(Cl)c(-c3cccc(S(N)(=O)=O)c3)cc2S(=O)(=O)N1C [Example 168] | –
37 | 0.1 to 1 | – | CC(C)NC(=O)N1CCC(Oc2cc3c(cc2-c2ccc(F)c(C(=O)O)c2)S(=O)(=O)N(C)[C@H](C2CCCCC2)CN3c2ccccc2)CC1 [Example 400, (R)-5-(3-cyclohexyl-7-((1-(isopropylcarbamoyl)piperidin-4-yl)oxy)-2-methyl-1,1-dioxido-5-phenyl-2,3,4,5-tetrahydrobenzo[f][1,2,5]thiadiazepin-8-yl)-2-fluorobenzoic acid] | –
38 | 0.1 to 1 | – | CC(C)C[C@@H]1CN(c2ccccc2)c2cc(Cl)c(-c3cccc(S(=O)(=O)O)c3)cc2S(=O)(=O)N1C [Example 230] | –
39 | < 0.1 | – | CC(C)C[C@@H]1CN(c2ccccc2)c2cc(OCC(F)(F)F)c(-c3ccc(F)c(C(=O)O)c3)cc2S(=O)(=O)N1C [Example 453] | –

Row | Compound | EC50 (HBV; [1]) [µM] | EC50 (NTCP) [nM] | EC50 (HBV; read-out: Cellular EC50 (μM)) [µM]
40 | COc1ccccc1N1C[C@@H](C2CCCCC2)N(C)S(=O)(=O)c2cc(-c3ccc(F)c(C(=O)O)c3)c(Cl)cc21 [Example 304, (R)-5-(7-chloro-3-cyclohexyl-5-(2-methoxyphenyl)-2-methyl-1,1-dioxido-2,3,4,5-tetrahydrobenzo[f][1,2,5]thiadiazepin-8-yl)-2-fluorobenzoic acid] | – | > 1000 | > 1
